Three molecules from patent US20240246934A1, “QUINAZOLINE-BASED COMPOUND, COMPOSITION, AND APPLICATION OF QUINAZOLINE-BASED COMPOUND” (BEIJING SCITECH-MQ PHARMACEUTICALS LIMITED, priority 2021, published 2024) can be followed below.

In data set [1] the target is Ba/F3 EGFR D770_N771insSVD cells (Homo sapiens, UniProt P00533, DUP768-770, cells depend on it). The data set can be described thus: Inhibition of cell proliferation, CTG method, Ba/F3 EGFR D770_N771insSVD. Type of data set: cell-based. To be noted: 72 hours, read-out: Ba/F3 EGFR D770_N771insSVD IC50. An excerpt:
The present application examined the in vitro anti-proliferative activity of the compounds of the present disclosure against in vitro cultured BT474, NCI-N87, Ba/F3-EGFR-VIII and Ba/F3 HER2 A775_G776insYVMA and Ba/F3 EGFR D770_N771insSVD cell lines by CTG method.
Reagents and consumables: RPMI1640 (ThermoFisher, Cat. No. C11875500BT); fetal bovine serum (Hyclone, Cat. No. SV30087.03); 0.25% trypsin-EDTA (ThermoFisher, Cat. No. 25200-072); penicillin-streptomycin (Hyclone, Cat. No. SV30010); DMSO (Amresco, Cat. No. 0231-500ML); CTG assay kit (Promega, Cat. No. G924C); 96-well plate (Corning, Cat. No. 3603); multifunctional plate reader (Perkin Elmer, Cat. No. Envision)
Cell lines: BT474 (from the cell bank of Chinese Academy of Sciences), NCI-N87 (from ATCC), Ba/F3-EGFR-VIII, Ba/F3 HER2 A775_G776insYVMA and Ba/F3 EGFR D770_N771insSVD (all from KYinno Biotechnology (Beijing) Co., Ltd.); all of the above cells were cultured with RPMI1640 medium containing 10% fetal bovine serum, 100 U/mL penicillin, and 100 μg/mL streptomycin in the culture process.
1. The assay compound was dissolved with DMSO to form a stock solution and a gradient dilution was performed, followed by dilution with the corresponding medium to obtain a solution with 5-fold working concentration.
2. Cells in logarithmic growth phase were adjusted to specific cell densities by dilution with culture medium, and 80 μL of cell suspension was added to a 96-well plate, such that plating densities of cells of BT474, NCI-N87, Ba/F3-EGFR-VIII, Ba/F3 HER2 A775_G776insYVMA and Ba/F3 EGFR D770_N771insSVD were all 3000 cells/well. The cells of Ba/F3-EGFR-VIII, Ba/F3 HER2 A775_G776insYVMA and Ba/F3 EGFR D770_N771insSVD were used directly in the next step (treatment with compound), whereas the BT474 and NCI-N87 needed to be cultured overnight in a 37° C., 5% carbon dioxide gas incubator to adhere to the wall, and then treated with compounds.
3. 20 μL of compound solution was added to each well of the 96-well plate that had been inoculated with cells. The highest concentration of the assayed compound was 10 μM, 4-fold serial dilution, a total of 9 concentrations, and duplicate wells. A control group without compound was also set up.
4. The cells were cultured for another 72 hours, and then cell viability was detected by CTG assay kit. Signal values were read with a multifunctional plate reader (Perkin Elmer). GraphPad Prism software was used to create a dose-response curve and IC50 was calculated.

The nature of data set [2]: Pharmacokinetics in SD rats, single intravenous injection and oral administration. Type of data set: in vivo, SD rat. The note with it: for AUC(0-inf) / AUC(0-t) / Vd / half-life / bioavailability / Cmax / Tmax: SD, rat, whole blood; for bioavailability: PO 10 mg/kg vs IV 3 mg/kg, read-out: F % (bioavailability). In a few lines: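 SD rats received a single IV or oral dose of a solution formulation; the oral group was fasted overnight (>12 hrs) and fed 2 hrs post-dose, the IV group not fasted. Blood and brain were sampled at set times and analysed by LC/MS; CL, Vd, T1/2, Cmax, Tmax, AUC, MRT and F % come from plasma concentration-time data.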

The test system of data set [3] is Ba/F3 ERBB2 A775_G776insYVMA. Nature of the data set: Efficacy in nude mouse tumor-bearing model of Ba/F3 ERBB2 A775_G776insYVMA. It is filed as in vivo, BALB/c nude mice. To be noted: 30 mg/kg.
The mark [4] stands for this setting: NA: Exposure was too low to be counted.
Setting [5] is: PO 10 mg/kg, NA: Exposure was too low to be counted.

Sequence of Ba/F3 EGFR D770_N771insSVD cells (P00533 with tags, fused parts or gaps DUP768-770): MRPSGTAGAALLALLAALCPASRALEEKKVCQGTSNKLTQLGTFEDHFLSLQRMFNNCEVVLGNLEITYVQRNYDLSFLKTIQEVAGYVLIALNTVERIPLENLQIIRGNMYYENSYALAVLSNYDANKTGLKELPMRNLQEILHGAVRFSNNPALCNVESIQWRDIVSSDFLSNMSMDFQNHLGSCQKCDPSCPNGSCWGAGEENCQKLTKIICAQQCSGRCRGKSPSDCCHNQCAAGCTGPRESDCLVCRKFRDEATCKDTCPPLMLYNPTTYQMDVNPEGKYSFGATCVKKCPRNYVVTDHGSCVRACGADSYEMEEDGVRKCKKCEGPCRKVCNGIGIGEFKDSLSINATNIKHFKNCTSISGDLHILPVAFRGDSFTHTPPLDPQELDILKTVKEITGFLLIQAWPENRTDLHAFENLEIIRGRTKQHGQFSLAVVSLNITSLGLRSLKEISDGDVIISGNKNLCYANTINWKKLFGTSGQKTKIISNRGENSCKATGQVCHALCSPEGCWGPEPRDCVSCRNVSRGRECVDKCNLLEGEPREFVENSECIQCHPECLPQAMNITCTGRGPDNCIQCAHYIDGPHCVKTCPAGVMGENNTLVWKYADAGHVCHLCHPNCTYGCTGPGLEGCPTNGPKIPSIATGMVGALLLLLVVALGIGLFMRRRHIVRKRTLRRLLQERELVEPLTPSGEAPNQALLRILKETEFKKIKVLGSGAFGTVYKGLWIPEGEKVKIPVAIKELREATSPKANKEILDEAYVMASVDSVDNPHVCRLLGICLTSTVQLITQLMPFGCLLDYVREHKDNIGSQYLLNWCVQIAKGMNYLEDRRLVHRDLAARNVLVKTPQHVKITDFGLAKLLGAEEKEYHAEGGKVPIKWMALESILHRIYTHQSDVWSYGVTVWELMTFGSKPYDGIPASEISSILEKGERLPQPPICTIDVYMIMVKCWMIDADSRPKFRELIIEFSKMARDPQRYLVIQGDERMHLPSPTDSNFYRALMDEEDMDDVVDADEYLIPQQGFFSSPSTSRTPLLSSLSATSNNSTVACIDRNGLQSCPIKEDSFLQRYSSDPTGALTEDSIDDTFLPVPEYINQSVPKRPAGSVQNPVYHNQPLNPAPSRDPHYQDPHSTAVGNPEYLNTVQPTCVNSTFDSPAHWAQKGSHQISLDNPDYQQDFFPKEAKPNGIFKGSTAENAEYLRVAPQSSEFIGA

`CCN1CCC[C@@H]1/C=C/C(=O)Nc1ccc2ncnc(Nc3ccc(OCc4ccccn4)c(Cl)c3)c2c1OC` [Example 29, (R,E)-N-(4-((3-chloro-4-(pyridin-2-ylmethoxy)phenyl)amino)-5-methoxyquinazolin-6-yl)-3-(1-ethylpyrrolidin-2-yl)acrylamide]: the GI50 in data set [1] lay within 10 to 100 nM. In addition, in data set [2] (IV 3 mg/kg), the Cl_obs stood at 54.0 ± 7.4 mL/min/kg; the AUC(0-inf) – broadly, total exposure, with the tail of the curve extrapolated – came out at 938 ± 134 ng·h/mL; the AUC(0-t) (in general, the area under the concentration-time curve up to a stated or last time point) stood at 914 ± 129 ng·h/mL; the Vd is 22.7 ± 2.4 L/kg. Moreover, the half-life (commonly the time needed for the level to fall by half in the phase considered) in data set [2] (IV 3 mg/kg) was 4.86 ± 0.23 h. Besides, in data set [2] (setting [4]), the bioavailability (as a rule, dose-corrected exposure relative to a reference, in per cent) stood at 36.3 ± 3.4%. For the same molecule, in data set [2] (setting [5]), the AUC(0-inf) worked out at 1130 ± 106 ng·h/mL, the AUC(0-t) turned out to be 1100 ± 107 ng·h/mL, the concentration peaked (Cmax) at 95.3 ± 16.5 ng/mL and the Tmax (usually the time at which the peak concentration occurs) came to 3.33 ± 3.21 h. The same molecule gave a half-life in data set [2] (setting [5]) of 4.63 ± 0.26 h. In addition, the “T/C (%)” value in data set [3] (QD×11, PO, day 11) was found to be 18.7%.
Consider `COc1c(NC(=O)/C=C/[C@H]2CCCN2C)ccc2ncnc(Nc3ccc(OCc4ccccn4)c(Cl)c3)c12` [Example 4, (R,E)-N-(4-((3-chloro-4-(pyridin-2-ylmethoxy)phenyl)amino)-5-methoxyquinazolin-6-yl)-3-(1-methylpyrrolidin-2-yl)acrylamide], for which the GI50 in data set [1] was 10 to 100 nM. For the same molecule, in data set [2] (IV 3 mg/kg), the Cl_obs was determined as 52.1 ± 9.3 mL/min/kg, the AUC(0-inf) amounted to 979 ± 161 ng·h/mL, the AUC(0-t) amounted to 968 ± 156 ng·h/mL and the Vd was 20.2 ± 2.6 L/kg. The half-life in data set [2] (IV 3 mg/kg) is 4.5 ± 0.21 h. Besides, the bioavailability in data set [2] (setting [4]) stood at 27.6 ± 6.8%. In data set [2] (setting [5]), the AUC(0-inf) was 902 ± 223 ng·h/mL, the AUC(0-t) turned out to be 888 ± 221 ng·h/mL, the Cmax (commonly the maximum level reached in the sampled fluid or tissue) came out at 65.7 ± 19.9 ng/mL and the Tmax is 5.33 ± 2.89 h. The same molecule gave a half-life in data set [2] (setting [5]) of 3.69 ± 0.31 h. In addition, in data set [3] (QD×14, PO, day 14), the “T/C (%)” value is recorded as 2.6%.
Consider `COCCCOc1c(NC(=O)/C=C/[C@H]2CCCN2C)ccc2ncnc(Nc3ccc(OCc4ccccn4)c(Cl)c3)c12` [Example 9, (R,E)-N-(4-((3-chloro-4-(pyridin-2-ylmethoxy)phenyl)amino)-5-(3-methoxypropoxy)quinazolin-6-yl)-3-(1-methylpyrrolidin-2-yl)acrylamide], for which the GI50 in data set [1] is 10 to 100 nM. Also, in data set [2] (IV 3 mg/kg), the Cl_obs was 53.0 ± 6.7 mL/min/kg, the AUC(0-inf) is 955 ± 130 ng·h/mL, the AUC(0-t) came out at 949 ± 128 ng·h/mL and the Vd came to 18 ± 2.3 L/kg. Also, the half-life in data set [2] (IV 3 mg/kg) is 3.94 ± 0.18 h. In addition, the bioavailability in data set [2] (setting [4]) was found to be 34.9 ± 12.6%. Moreover, in data set [2] (setting [5]), the AUC(0-inf) amounted to 1110 ± 403 ng·h/mL, the AUC(0-t) was determined as 1100 ± 406 ng·h/mL, the highest level (Cmax) was 80.3 ± 30.5 ng/mL and the Tmax came out at 5 ± 3.46 h. Besides, the half-life in data set [2] (setting [5]) was 4.13 ± 0.57 h. In addition, in data set [3] (QD×15, PO, day 15), the “T/C (%)” value turned out to be 3.85%.
